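Dose response: 5 concentrations. Exposure: 48 h. Format: 96-well plates. Endpoint: linear interpolation; highest concentration if not reached. TGI: concentration producing complete growth inhibition.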
Experiments:
Assay in all cases: inhibition of tumour cell growth, NCI panel, 48 h
[1] = tested on: SNB-19 CNS
[2] = tested on: T-47D breast
[3] = tested on: UO-31 renal
[4] = tested on: NCI-H226 lung
[5] = tested on: 786-0 renal
[6] = tested on: TK-10 renal
[7] = tested on: DU-145 prostate
[8] = tested on: SK-MEL-2 melanoma
[9] = tested on: BT-549 breast
[10] = tested on: SK-OV-3 ovarian
[11] = tested on: IGROV1 ovarian
[12] = tested on: CAKI-1 renal
[13] = tested on: EKVX NSCLC
[14] = tested on: SF-268 CNS
[15] = tested on: HCC-2998 colon
[16] = tested on: SF-539 CNS
[17] = tested on: COLO 205 colon
[18] = tested on: SK-MEL-28 melanoma
[19] = tested on: MDA-MB-435
[20] = tested on: HCT-116 colon
[21] = tested on: MDA-MB-231 breast
[22] = tested on: UACC-257 melanoma
[23] = tested on: NCI-H460 lung
[24] = tested on: ACHN renal
[25] = tested on: HOP-92 NSCLC
[26] = tested on: MDA-N
[27] = tested on: OVCAR-4 ovarian
[28] = tested on: OVCAR-3 ovarian
[29] = tested on: SW-620 colon
[30] = tested on: U251 CNS
[31] = tested on: MCF7 breast
[32] = tested on: HL-60(TB) leukemia
[33] = tested on: HS 578T breast
[34] = tested on: LOX IMVI melanoma
[35] = tested on: SN12C renal
[36] = tested on: MOLT-4 leukemia
[37] = tested on: NCI-H23 lung
[38] = tested on: HCT-15 colon
[39] = tested on: OVCAR-8 ovarian
[40] = tested on: SNB-75 CNS
[41] = tested on: MALME-3M melanoma
[42] = tested on: PC-3 prostate
[43] = tested on: KM12 colon
[44] = tested on: HT29 colon
[45] = tested on: OVCAR-5 ovarian
[46] = tested on: A549 NSCLC
[47] = tested on: NCI-H522 lung
[48] = tested on: M14 melanoma
[49] = tested on: UACC-62 melanoma
[50] = tested on: NCI/ADR-RES ovarian
[51] = tested on: SF-295 CNS
[52] = tested on: A498 renal
[53] = tested on: K-562 leukemia
[54] = tested on: RXF 393 renal
[55] = tested on: RPMI-8226 leukemia
[56] = tested on: HOP-62 NSCLC
[57] = tested on: SR leukemia

**Q.** For `COCC([C@@H](O)C(O)C(=O)NCC[C@@H](C)c1nc(/C=C/CC2OC3(C[C@H](O)C2C)OC(C(C[C@H](O)C(C)[C@H](O)C(C)/C=C(C)/C(C)=C/C=C/C(C)=C/C#N)OC)[C@@H](OP(=O)(O)O)C3(C)C)co1)N(C)C` (some centres not stated), which TGI [1] is on record?
**A.** 0.343 nM

**Q.** What about the TGI [2] of the same compound?
**A.** 1.95 nM

**Q.** What about the TGI [3] of the same compound?
**A.** 2.79 nM

**Q.** And the TGI [4]?
**A.** 0.282 nM

**Q.** And the TGI [5]?
**A.** 0.314 nM

**Q.** And the TGI [6]?
**A.** 0.24 nM

**Q.** And the TGI [7]?
**A.** 0.322 nM

**Q.** And the TGI [8]?
**A.** 0.333 nM

**Q.** And the TGI [9]?
**A.** 0.312 nM

**Q.** What about the TGI [10] of the same compound?
**A.** 1.54 nM

**Q.** What about the TGI [11] of the same compound?
**A.** 0.296 nM

**Q.** What about the TGI [12] of the same compound?
**A.** 0.325 nM

**Q.** And the TGI [13]?
**A.** 0.326 nM

**Q.** And the TGI [14]?
**A.** 0.344 nM

**Q.** And the TGI [15]?
**A.** 0.325 nM

**Q.** And the TGI [16]?
**A.** 0.34 nM

**Q.** What about the TGI [17] of the same compound?
**A.** 0.309 nM

**Q.** What about the TGI [18] of the same compound?
**A.** 0.323 nM

**Q.** What about the TGI [19] of the same compound?
**A.** 0.336 nM

**Q.** What about the TGI [20] of the same compound?
**A.** 0.315 nM

**Q.** What about the TGI [21] of the same compound?
**A.** 0.562 nM

**Q.** What about the TGI [22] of the same compound?
**A.** 2.32 nM

**Q.** And the TGI [23]?
**A.** 0.272 nM

**Q.** And the TGI [24]?
**A.** 0.394 nM

**Q.** What about the TGI [25] of the same compound?
**A.** 0.316 nM

**Q.** What about the TGI [26] of the same compound?
**A.** 0.358 nM

**Q.** And the TGI [27]?
**A.** 2.74 nM

**Q.** And the TGI [28]?
**A.** 0.326 nM

**Q.** What about the TGI [29] of the same compound?
**A.** 0.327 nM

**Q.** What about the TGI [30] of the same compound?
**A.** 0.332 nM

**Q.** What about the TGI [31] of the same compound?
**A.** 0.347 nM

**Q.** And the TGI [32]?
**A.** 2.07 nM

**Q.** And the TGI [33]?
**A.** 0.391 nM

**Q.** What about the TGI [34] of the same compound?
**A.** 0.561 nM

**Q.** And the TGI [35]?
**A.** 0.34 nM

**Q.** And the TGI [36]?
**A.** 2.48 nM

**Q.** What about the TGI [37] of the same compound?
**A.** 2.1 nM

**Q.** And the TGI [38]?
**A.** 0.462 nM

**Q.** What about the TGI [39] of the same compound?
**A.** 0.423 nM

**Q.** What about the TGI [40] of the same compound?
**A.** 0.327 nM

**Q.** And the TGI [41]?
**A.** 0.316 nM

**Q.** And the TGI [42]?
**A.** 0.321 nM

**Q.** And the TGI [43]?
**A.** 0.331 nM

**Q.** What about the TGI [44] of the same compound?
**A.** 0.297 nM

**Q.** What about the TGI [45] of the same compound?
**A.** 0.345 nM

**Q.** And the TGI [46]?
**A.** 1.47 nM

**Q.** What about the TGI [47] of the same compound?
**A.** 0.308 nM

**Q.** And the TGI [48]?
**A.** 0.323 nM

**Q.** And the TGI [49]?
**A.** 0.341 nM

**Q.** And the TGI [50]?
**A.** 2.58 nM

**Q.** And the TGI [51]?
**A.** 0.328 nM

**Q.** What about the TGI [52] of the same compound?
**A.** 3.33 nM

**Q.** With `S=C(Cc1ccc2c(c1)Sc1ccccc1O2)N1CCOCC1` as the compound, how does the TGI [1] read?
**A.** > 100000 nM

**Q.** What about the TGI [2] of the same compound?
**A.** > 100000 nM

**Q.** What about the TGI [3] of the same compound?
**A.** > 100000 nM

**Q.** And the TGI [4]?
**A.** > 100000 nM

**Q.** And the TGI [5]?
**A.** > 100000 nM

**Q.** What about the TGI [53] of the same compound?
**A.** > 100000 nM

**Q.** And the TGI [6]?
**A.** > 100000 nM

**Q.** What about the TGI [7] of the same compound?
**A.** > 100000 nM

**Q.** What about the TGI [8] of the same compound?
**A.** > 100000 nM

**Q.** And the TGI [10]?
**A.** > 100000 nM

**Q.** And the TGI [11]?
**A.** > 100000 nM

**Q.** What about the TGI [12] of the same compound?
**A.** > 100000 nM

**Q.** What about the TGI [13] of the same compound?
**A.** > 100000 nM

**Q.** What about the TGI [14] of the same compound?
**A.** > 100000 nM

**Q.** And the TGI [15]?
**A.** > 100000 nM

**Q.** And the TGI [16]?
**A.** 61100 nM

**Q.** What about the TGI [17] of the same compound?
**A.** > 100000 nM

**Q.** And the TGI [18]?
**A.** > 100000 nM

**Q.** What about the TGI [19] of the same compound?
**A.** > 100000 nM

**Q.** What about the TGI [20] of the same compound?
**A.** > 100000 nM

**Q.** And the TGI [21]?
**A.** > 100000 nM

**Q.** What about the TGI [22] of the same compound?
**A.** > 100000 nM

**Q.** What about the TGI [23] of the same compound?
**A.** > 100000 nM

**Q.** What about the TGI [24] of the same compound?
**A.** > 100000 nM

**Q.** And the TGI [25]?
**A.** > 100000 nM

**Q.** What about the TGI [26] of the same compound?
**A.** > 100000 nM

**Q.** What about the TGI [27] of the same compound?
**A.** > 100000 nM

**Q.** What about the TGI [28] of the same compound?
**A.** > 100000 nM

**Q.** What about the TGI [29] of the same compound?
**A.** > 100000 nM

**Q.** And the TGI [30]?
**A.** > 100000 nM

**Q.** What about the TGI [31] of the same compound?
**A.** > 100000 nM

**Q.** And the TGI [32]?
**A.** > 100000 nM

**Q.** What about the TGI [33] of the same compound?
**A.** 61600 nM

**Q.** What about the TGI [34] of the same compound?
**A.** > 100000 nM

**Q.** What about the TGI [54] of the same compound?
**A.** > 100000 nM

**Q.** What about the TGI [35] of the same compound?
**A.** > 100000 nM

**Q.** And the TGI [36]?
**A.** > 100000 nM

**Q.** And the TGI [37]?
**A.** > 100000 nM

**Q.** And the TGI [38]?
**A.** > 100000 nM

**Q.** And the TGI [39]?
**A.** > 100000 nM

**Q.** And the TGI [40]?
**A.** 60600 nM

**Q.** What about the TGI [41] of the same compound?
**A.** 90200 nM

**Q.** And the TGI [42]?
**A.** > 100000 nM

**Q.** What about the TGI [43] of the same compound?
**A.** > 100000 nM

**Q.** What about the TGI [44] of the same compound?
**A.** > 100000 nM

**Q.** And the TGI [55]?
**A.** > 100000 nM

**Q.** What about the TGI [45] of the same compound?
**A.** > 100000 nM

**Q.** What about the TGI [46] of the same compound?
**A.** > 100000 nM

**Q.** And the TGI [56]?
**A.** > 100000 nM

**Q.** What about the TGI [57] of the same compound?
**A.** > 100000 nM

**Q.** And the TGI [48]?
**A.** > 100000 nM

**Q.** What about the TGI [49] of the same compound?
**A.** > 100000 nM

**Q.** And the TGI [50]?
**A.** > 100000 nM

**Q.** And the TGI [51]?
**A.** > 100000 nM

**Q.** And the TGI [52]?
**A.** > 100000 nM

Source: PubChem BioAssay (NCI)
